≈ marks a conversion by molar mass, not a printed value. Where two headings read alike, the source gives them in different places.
Legend:
Format in all cases: cell-based
[1] = tested on: Pseudomonas aeruginosa strain PA01; experiment: Antibiotic disc diffusion assay (zone of inhibition); conditions: antibiotic disc on Iso-Sensitest agar, 37° C., 20 hours, ±Stdev, n = 2
Procedure: (§1) The antibiotic disc diffusion assay was performed as described previously to determine the antibiotic susceptibility of the two strains. Briefly, a standardised suspension of the two Pseudomonas strains was used to inoculate Iso-Sensitest agar (ISA) plates to yield semi-confluent growth of each organism. Antibiotic discs containing Gentamicin and Imipenem were applied to the inoculated plates, then incubated at 37° C. for 20 hours. Zones of inhibition were measured to the nearest millimetre.

[2] = tested on: Pseudomonas aeruginosa strain PS3; experiment: as above; conditions: antibiotic disc on Iso-Sensitest agar, 37° C., 20 hours, ±Stdev, n = 2
Procedure: as §1

[3] = tested on: Pseudomonas aeruginosa strain PA01; experiment: 96-well broth dilution test (MIC) in presence and absence of dendrimer; conditions: for MIC: MHB, 37° C., 24 hours; for Reduction (%) in MIC: with dendrimer (0.1%) versus antibiotic alone
Procedure: (§2) Briefly, a standard suspension of the two Pseudomonas strains was prepared in Mueller Hinton Broth (MHB), then added to varying concentrations of antibiotic in a 96-well plate. Tests were performed either in the presence or absence of dendrimer (final concentration 0.1%). 96-well plates were incubated at 37° C. for 24 hours, with optical density (620 nm) of cultures monitored over this period using a Multiskan EX plate reader (Thermo Labsystems).

[4] = tested on: Pseudomonas aeruginosa strain PS3; experiment: as above; conditions: for MIC: MHB, 37° C., 24 hours; for Reduction (%) in MIC: with dendrimer (0.1%) versus antibiotic alone
Procedure: as §2

[5] = presence of dendrimer (final concentration 0.1%)

Row | Molecule | Zone of inhibition [1] | Zone of inhibition [2] | MIC ([3]; Pseudomonas aeruginosa, PA01, 24 h, absence of dendrimer, read-out: MIC) [µg/mL] | MIC ([3]; Pseudomonas aeruginosa, PA01, 24 h, presence of dendrimer (final concentration 0.1%), read-out: MIC) [µg/mL] | Reduction (%) in MIC [3] [%] | MIC ([4]; Pseudomonas aeruginosa, PS3, 24 h, absence of dendrimer, read-out: MIC) [µg/mL] | MIC ([4]; Pseudomonas aeruginosa, PS3, 24 h, presence of dendrimer (final concentration 0.1%), read-out: MIC) [µg/mL] | Reduction (%) in MIC [4] [%] | MIC ([3]; absence of dendrimer) [µg/mL] | MIC [3, 5] [µg/mL] | MIC ([4]; absence of dendrimer) [µg/mL] | MIC [4, 5] [µg/mL]
1 | C[C@@H](O)[C@H]1C(=O)N2C(C(=O)O)=C(SCCN=CN)C[C@H]12 [Imipenem] | 12 (±2.8) Mm | 35 (±0.0) Mm | 28.3 (≈ 94.6 µM) | < 0.011 | > 99.9 | 51.1 (≈ 171 µM) | < 0.011 | > 99.9 | – | – | – | –
2 | Gentamicin | 38 (±1.4) Mm | 46 (±0.7) Mm | – | – | 71 | – | – | 78 | 4.64 | 1.34 | 1.45 | 0.32
